In patent US4318864A, “Process for making s-phenenyltris(sulfonylimino)tri-benzene mono- and di-sulfonic acids and salts” (American Cyanamid Company, priority 1980, dated 1982):
Where a name gives a salt, the structure may show the parent alone. Read-outs that look alike come from different tables or passages of the source.

Tests used:
[1] = test system: late components of human complement (C3-C9); assay: Test Code 035 (C3-C9 inhibitor), lysis of EAC 142; format: biochemical; parameters: key: N = Negative; details: serial dilution assay, twofold dilutions
[2] = test system: shunt pathway; assay: Test Code 036 (C-Shunt inhibitor), lysis of human erythrocytes via cobra venom factor activated shunt pathway; format: biochemical; parameters: key: N = Negative; details: serial dilution assay, twofold dilutions
[3] = target: activated human C1 (Homo sapiens, UniProt P09871); assay: Test Code 026 (C1 inhibitor); format: biochemical; details: serial dilution assay, twofold dilutions; higher well number indicates higher activity
[4] = test system: complement activity in serum; assay: Guinea Pig Intraperitoneal Test (GPIP); format: in vivo; details: Cavia porcellus, ip, 200 mg./kg. i.p.

Cl 026 Wells [3]: +8 Wells
SMILES: O=S(=O)(O)c1cc(NS(=O)(=O)c2cc(S(=O)(=O)Nc3cc(S(=O)(=O)O)cc(S(=O)(=O)O)c3)cc(S(=O)(=O)Nc3cc(S(=O)(=O)O)cc(S(=O)(=O)O)c3)c2)cc(S(=O)(=O)O)c1 [5,5',5"-[s-Phenenyltris(sulfonylimino)]tri-m-benzenedisulfonic acid, hexasodium salt]
C-Late 035 Wells [1]: N
Shunt Inhibition 036 Wells [2]: N
inhibition at 200 mg/kg ([4]; 0.5 h, 30 min after injection, read-out: In Vivo Activity (Guinea pig) % Inhibition Intraperitoneal, 30 min): -75%
inhibition at 200 mg/kg ([4]; 1 h, 60 min after injection, read-out: In Vivo Activity (Guinea pig) % Inhibition Intraperitoneal, 60 min): -75%
inhibition at 200 mg/kg ([4]; 2 h, 120 min after injection, read-out: In Vivo Activity (Guinea pig) % Inhibition Intraperitoneal, 120 min): -81%
